Assay: Solubility of the peptide pamoate in water
Type: physicochemical
Settings: in H2O at 40° C.
Protocol: (pyro)Glu-His-Trp-Ser-Tyr-D-Trp-Leu-Arg-Pro-Gly-NH2 were converted into the corresponding pamoate, using conventional techniques. After comminution, this salt appears as formed of microparticles of an amorphous structure with an average particle size of approximately 10 microns. Solubility: lesser than 0.025 mg/ml in H2 O at 40° C.

CC(C)C[C@H](NC(=O)[C@@H](Cc1c[nH]c2ccccc12)NC(=O)[C@H](Cc1ccc(O)cc1)NC(=O)[C@H](CO)NC(=O)[C@H](Cc1c[nH]c2ccccc12)NC(=O)[C@H](Cc1c[nH]cn1)NC(=O)[C@@H]1CCC(=O)N1)C(=O)N[C@@H](CCCNC(=N)N)C(=O)N1CCC[C@H]1C(=O)NCC(N)=O [pamoate of D-Trp6-LHRH, (pyro)Glu-His-Trp-Ser-Tyr-D-Trp-Leu-Arg-Pro-Gly-NH2]
solubility: < 25 µg/mL

Reference: patent US5445832A, “Process for the preparation of microspheres made of a biodegradable polymeric material” (priority 1991, dated 1995)
